Earlier results in patent US20230009337A1, “Liberty Vitamins and Drinks” (priority 2021, published 2023).

Legend:
TWIK2 potassium channels = target: T1, TWIK2 potassium channels (Homo sapiens, UniProt Q9Y257); conditions: macrophage white blood cell; discovered by Dr. Jalees Rehman and Professor Asrar Malik, University of Illinois in Chicago
T1 construct: host or cells: macrophage white blood cell (as described in the diagram)
T1 sequence (Q9Y257 1-313): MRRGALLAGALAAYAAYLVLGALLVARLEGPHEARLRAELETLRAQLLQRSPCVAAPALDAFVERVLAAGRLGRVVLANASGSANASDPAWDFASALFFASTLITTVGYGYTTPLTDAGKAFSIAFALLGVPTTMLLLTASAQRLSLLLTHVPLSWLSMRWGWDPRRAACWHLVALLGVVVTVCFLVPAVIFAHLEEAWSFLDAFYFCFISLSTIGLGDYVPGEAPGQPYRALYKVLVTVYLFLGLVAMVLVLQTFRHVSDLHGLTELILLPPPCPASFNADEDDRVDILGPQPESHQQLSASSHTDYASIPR

mice = conditions: acetone/olive oil placed on the mice for 4 weeks

inhibition of TWIK2 channels (TWIK2 potassium channels): can inhibit
Compound: C=C[C@H]1C[N@@]2CC[C@H]1C[C@H]2[C@H](O)c1ccnc2ccc(OC)cc12 [Quinine]
loss of skin and flesh (skin inflammation) (mice): did not have a loss of skin and flesh
